Data on five molecules can be found in patent publication US7145058B2, “Efficient method of preventing growth of microbial genetic transformant after transformation” (Council of Scientific and Industrial Research, priority 2002, dated 2006).

Molecules are shown by their SMILES. A value given as a limit tells only on which side of the number the result lay.

The subject of data set [1] is Agrobacterium tumefaciens. The experiment in a line: Growth curve of Agrobacterium tumefaciens in liquid Yeast Mannitol Broth, optical density at 600 nm. The format is cell-based. Particulars: different concentrations of D-catechin of Acacia species. As to the method:
The growth of bacteria is measured spectrophotometrically. The variation of growth is measured for up to 48 hours at an interval of 6 hours each.
Two strains of Agrobacterium tumefaciens viz. EHA105 (mild) and GV2260 (virulent) harbouring the antibiotic resistance genes for kanamycin or hygromycin and the reporter gus gene were inoculated from mother cultures of respective strains into 10–30 ml liquid modified Yeast Mannitol Broth with kanamycin or hygromycin. The cultures were incubated for 12–16 hr at 25–30° C. and 150–200 rpm in dark and harvested at 0.6–0.8 optical density at 600 nm for 1×10^9 cells/ml during log phase of bacterial growth. […] Measurement of optical density at 600 nm at regular 6 hr intervals for 0–48 hr and the mean of three readings were plotted for development of the growth curve.
Crude mixture of catechins as well as caffeine at concentrations of 2–600 μg/ml were added to fresh cultures of Agrobacterium tumefaciens and maintained at 25–30° C. in dark at 150–200 rpm for 48 hr. The optical density was again measured at regular interval of 6 hr each for 0–48 hr for the plotting of the mean of the three readings in a linear graph in order to determine the effect of the crude mixture of catechins as well as caffeine at concentrations of 2–600 μg/ml on fresh cultures of Agrobacterium tumefaciens.

The subject of a further data set is guar tissues. Particulars: cited from earlier work.
The test system of a further data set is Agrobacterium. Particulars: carbenicillin, cefotaxime, ticarcillin for Brassica, Solanum, Rubus respectively; cited from earlier work.
Data set [2] deals with cultured tissues of Vitis. The note with it: cited from earlier work.
The test system of data set [3] is A. tumefaciens, supervirulent strain EHA101 (pEHA101/pGT100). The note with it: 100 μg/ml, singly or in combination, 52 days in regeneration and elongation media; cited from earlier work.
Data set [4] deals with Sitka spruce somatic embryos. Particulars: cited from earlier work.

As to `Oc1cc(O)c2c(c1)OC(c1ccc(O)c(O)c1)C(O)C2` [D-catechin], in data set [1], the “growth of Agrobacterium tumefaciens” value was “promote and not inhibit the growth”.

On to `CC1(C)S[C@@H]2[C@H](NC(=O)C(C(=O)O)c3ccccc3)C(=O)N2[C@H]1C(=O)O` (some centres unmarked) [carbenicillin], for which the “phytotoxicity to guar explants” value in the data set with guar tissues is “phytotoxic”. For the same molecule, the “elimination of residual Agrobacterium” value in the data set with Agrobacterium was “none of the antibiotics tested succeeded in eliminating Agrobacterium”. Also, in data set [2], the “effect on plant regeneration” value is “inhibitory effects on plant regeneration”. The “elimination of A. tumefaciens from the explants” value (“elimination of A. tumefaciens” below) in data set [3] is “did not eliminate”. Further, in data set [4], the “development of mature somatic embryos” value is listed as “prevented the development of mature somatic embryos”, the “reduction of early stage embryos” value is on record as greater than 90% and the “reduction of tissue growth” value is reported as 50%.

Take `CO/N=C(\C(=O)N[C@@H]1C(=O)N2C(C(=O)O)=C(COC(C)=O)CS[C@H]12)c1csc(N)n1` [cefotaxime]: the “phytotoxicity to guar explants” value in the data set with guar tissues is “phytotoxic”. The “elimination of residual Agrobacterium” value in the data set with Agrobacterium is recorded as “none of the antibiotics tested succeeded in eliminating Agrobacterium”. In addition, in data set [3], the “elimination of A. tumefaciens” value is “did not eliminate”. For the same molecule, the “effect on overall tissue growth” value in data set [4] is listed as “no effect”.

As for `CO[C@@]1(NC(=O)Cc2cccs2)C(=O)N2C(C(=O)O)=C(COC(N)=O)CS[C@@H]21` [cefoxitin], the “elimination of A. tumefaciens” value in data set [3] is “did not eliminate”.

For the molecule `CC1(C)S[C@@H]2[C@H](NC(=O)[C@H](C(=O)O)c3ccsc3)C(=O)N2[C@H]1C(=O)O` [ticaracillin, ticarcillin], in the data set on Agrobacterium, the “elimination of residual Agrobacterium” value is “none of the antibiotics tested succeeded in eliminating Agrobacterium”.
